US20240158446A1, “CYCLIC COMPOUND HAVING SELECTIVE INHIBITORY ACTION ON KRAS OVER HRAS AND NRAS” (CHUGAI SEIYAKU KABUSHIKI KAISHA, priority 2021, published 2024)
Read-outs that look alike come from different tables or passages of the source. *1 amine or outer side, *2 acyl side, *3 side chain or, on linkers, in order; H or OH if unused. Where a SMILES comes first, the peptide text is derived from it. Bridges are numbered along the chain shown (N, C = ends). [ ]: non-standard residue; d: D form. The star is where a group is joined. hPhe(3-Cl-4-CF3) = N[C@@H](CCc1ccc(C(F)(F)F)c(Cl)c1)C(=O)O; X52 = CCCN([C@@H](Cc1ccc(OC(F)(F)F)cc1)C(=O)[*:2])[*:1]; NPrPhe(4-CF3) = CCCN[C@@H](Cc1ccc(C(F)(F)F)cc1)C(=O)O; X42 = Cc1ccc(C[C@@H](C(=O)[*:2])N(CC2CCC2)[*:1])cc1; X10 = C=CCN([C@@H](Cc1ccc(C)cc1)C(=O)[*:2])[*:1]; NMeGly(cPent) = CN[C@H](C(=O)O)C1CCCC1; NMeD = CN[C@@H](CC(=O)O)C(=O)O; NMeL = CN[C@@H](CC(C)C)C(=O)O; Morpholide = C1CN(*)CCO1; NMeA = CN[C@@H](C)C(=O)O; Ac5c = NC1(C(=O)O)CCCC1; Aze = O=C(O)[C@@H]1CCN1; Ac3c = NC1(C(=O)O)CC1; Sar = CNCC(=O)O

Columns and labels:
[1] = molecular target: GDP-bound KRAS wild-type protein (Homo sapiens, UniProt P01116); experiment: Binding to KRAS by surface plasmon resonance (SPR), Single Cycle Kinetics; conditions: GDP-bound KRAS wild-type protein, read-out: KRAS KD
Chain of GDP-bound KRAS wild-type protein (P01116 whole entry): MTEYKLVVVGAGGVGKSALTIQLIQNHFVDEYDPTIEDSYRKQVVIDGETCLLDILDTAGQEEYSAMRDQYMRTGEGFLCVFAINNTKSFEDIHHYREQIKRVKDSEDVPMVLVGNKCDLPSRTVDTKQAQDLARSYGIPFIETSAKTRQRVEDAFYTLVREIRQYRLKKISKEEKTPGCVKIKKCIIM

[2] = molecular target: GDP-bound NRAS wild-type protein (Homo sapiens, UniProt P01111); experiment: Binding to NRAS by surface plasmon resonance (SPR), Single Cycle Kinetics; conditions: for NRAS/KRAS (ratio of KD value with respect to GDP-bound NRAS wild-type protein to KD value with respect to KRAS): SPR KD ratio NRAS/KRAS, class symbols
Chain of GDP-bound NRAS wild-type protein (P01111 whole entry): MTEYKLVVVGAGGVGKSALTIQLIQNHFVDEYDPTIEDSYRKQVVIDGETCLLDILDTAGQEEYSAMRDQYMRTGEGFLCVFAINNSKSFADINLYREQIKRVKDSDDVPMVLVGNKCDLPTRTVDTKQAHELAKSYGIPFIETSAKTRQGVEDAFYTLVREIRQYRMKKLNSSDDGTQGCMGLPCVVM

[3] = molecular target: GDP-bound HRAS wild-type protein (Homo sapiens, UniProt P01112); experiment: Binding to HRAS by surface plasmon resonance (SPR), Single Cycle Kinetics; conditions: for HRAS/KRAS (ratio of KD value for HRAS to KD value for KRAS): SPR, GDP-bound HRAS wild-type protein vs GDP-bound KRAS wild-type protein; for HRAS/KRAS (ratio of KD value with respect to GDP-bound HRAS wild-type protein to KD value with respect to KRAS): SPR KD ratio HRAS/KRAS, class symbols
Chain of GDP-bound HRAS wild-type protein (P01112 whole entry): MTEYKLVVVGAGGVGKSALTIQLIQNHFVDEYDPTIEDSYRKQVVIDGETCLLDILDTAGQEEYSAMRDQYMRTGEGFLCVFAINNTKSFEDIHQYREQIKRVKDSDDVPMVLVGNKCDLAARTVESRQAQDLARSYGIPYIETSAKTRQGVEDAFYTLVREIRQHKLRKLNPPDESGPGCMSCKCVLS

[4] = SPR Single Cycle Kinetics, 1:1 binding model

Row | SMILES | Kd [1, 4] [nM] | HRAS/KRAS (ratio of KD value with respect to GDP-bound HRAS wild-type protein to KD value with respect to KRAS) [3] | also measured
1 | CCO[C@@H]1C[C@H]2C(=O)NC3(CC(C)(C)C3)C(=O)N(C)[C@@H](C(CC)CC)C(=O)N(C)[C@H](C(=O)N(C)C)CC(=O)N(C)[C@@H](C(C)C)C(=O)N[C@@H]([C@@H](C)CC)C(=O)N(C)CC(=O)N(C)[C@H]3C/C=C\CCN(C3=O)[C@@H](Cc3ccc(C(F)(F)F)cc3)C(=O)N(C)CC(=O)N[C@@H](CCc3cc(F)c(C(F)(F)F)c(F)c3)C(=O)N2C1 [PP2135] |  |  | Kd ([1]; SPR, Single Cycle Kinetics): 0.49 nM; NRAS/KRAS (ratio of KD value for NRAS to KD value for KRAS) ([2]; SPR, GDP-bound NRAS wild-type protein vs GDP-bound KRAS wild-type protein): AA (a compound having 20 or more is denoted as AA); HRAS/KRAS (ratio of KD value for HRAS to KD value for KRAS) [3]: A (a compound having 10 or more and less than 20 is denoted as A)
2 | CCO[C@@H]1C[C@H]2C(=O)NC3(CCC3)C(=O)N(C)[C@@H](C(CC)CC)C(=O)N3CCC[C@@H]3CC(=O)N(C)[C@@H](CC)C(=O)N[C@@H]([C@@H](C)CC)C(=O)N(C)CC(=O)N(C)[C@H]3C/C=C\CCN(C3=O)[C@@H](Cc3ccc(C(F)(F)F)cc3)C(=O)N(C)CC(=O)N[C@@H](CCc3cc(F)c(C(F)(F)F)c(F)c3)C(=O)N2C1 [PP1607] |  |  | Kd ([1]; SPR, Single Cycle Kinetics, 1:1 binding model): 0.57 nM; HRAS/KRAS (ratio of KD value for HRAS to KD value for KRAS) ([3]; KD ratio class): A (a compound having 10 or more and less than 20 is denoted as A)
3 | C=CCN1C(=O)[C@@H]2CCN2C(=O)[C@H](C)N(C)C(=O)[C@H]([C@@H](C)CC)NC(=O)[C@H](CC(C)C)N(C)C(=O)C[C@@H](C(=O)N2CCOCC2)N(C)C(=O)[C@H](C2CCCC2)N(C)C(=O)C2(CCCC2)NC(=O)[C@@H]2CCCN2C(=O)[C@H](CCc2ccc(C(F)(F)F)c(Cl)c2)NC(=O)CN(C)C(=O)[C@@H]1Cc1ccc(C)cc1 [PP0088] ([NMeL]I[NMeA][Aze][X10][Sar][hPhe(3-Cl-4-CF3)]P[Ac5c][NMeGly(cPent)][NMeD]-Morpholide; lactam N-11) | 0.12 |  | 
4 | CCCN1C(=O)[C@@H]2CCN2C(=O)[C@H](C)N(C)C(=O)[C@H]([C@@H](C)CC)NC(=O)[C@H](CC(C)C)N(C)C(=O)C[C@@H](C(=O)N2CCOCC2)N(C)C(=O)[C@H](C2CCCC2)N(C)C(=O)C2(CCCC2)NC(=O)[C@@H]2CCCN2C(=O)[C@H](CCc2ccc(C(F)(F)F)c(Cl)c2)NC(=O)CN(C)C(=O)[C@@H]1Cc1ccc(OC(F)(F)F)cc1 [PP0136] ([NMeL]I[NMeA][Aze][X52][Sar][hPhe(3-Cl-4-CF3)]P[Ac5c][NMeGly(cPent)][NMeD]-Morpholide; lactam N-11) | 1.3 |  | 
5 | CC[C@H](C)[C@@H]1NC(=O)[C@H](CC(C)C)N(C)C(=O)C[C@@H](C(=O)N2CCOCC2)N(C)C(=O)[C@H](C2CCCC2)N(C)C(=O)C2(CCCC2)NC(=O)[C@@H]2CCCN2C(=O)[C@H](CCc2ccc(C(F)(F)F)c(Cl)c2)NC(=O)CN(C)C(=O)[C@H](Cc2ccc(C)cc2)N(CC2CCC2)C(=O)[C@@H]2CCN2C(=O)[C@H](C)N(C)C1=O [PP0083] ([NMeL]I[NMeA][Aze][X42][Sar][hPhe(3-Cl-4-CF3)]P[Ac5c][NMeGly(cPent)][NMeD]-Morpholide; lactam N-11) | 1.1 |  | 
6 | CCCN1C(=O)[C@@H]2CCN2C(=O)C2(CC2)NC(=O)[C@H]([C@@H](C)CC)NC(=O)[C@H](CC(C)C)N(C)C(=O)C[C@@H](C(=O)N2CCOCC2)N(C)C(=O)[C@H](C2CCCC2)N(C)C(=O)C2(CCCC2)NC(=O)[C@@H]2CCCN2C(=O)[C@H](CCc2ccc(C(F)(F)F)c(Cl)c2)NC(=O)CN(C)C(=O)[C@@H]1Cc1ccc(C(F)(F)F)cc1 [PP0276] ([NMeL]I[Ac3c][Aze][NPrPhe(4-CF3)][Sar][hPhe(3-Cl-4-CF3)]P[Ac5c][NMeGly(cPent)][NMeD]-Morpholide; lactam N-11) | 150 |  | 

Now from value to compound, other results behind:

Row | Kd [1, 4] [nM] | SMILES | HRAS/KRAS (ratio of KD value with respect to GDP-bound HRAS wild-type protein to KD value with respect to KRAS) [3] | also measured
7 | 3.1 | CCC[C@H]1C(=O)N[C@@H]([C@@H](C)CC)C(=O)N(C)CC(=O)N(C)[C@H]2C/C=C\CCN(C2=O)[C@@H](Cc2ccc(C(F)(F)F)cc2)C(=O)N(C)CC(=O)N[C@@H](CCc2ccc3ccn(C)c3c2)C(=O)N2C[C@H](OCC)C[C@H]2C(=O)NC2(CC(C)(C)C2)C(=O)N(C)[C@@H](C2CCCC2)C(=O)N(C)[C@H](C(=O)N(C)C)CC(=O)N1C [PP2901] | A (a compound having 10 or more and less than 20 is denoted as A) | NRAS/KRAS (ratio of KD value with respect to GDP-bound NRAS wild-type protein to KD value with respect to KRAS) [2]: A (a compound having 10 or more and less than 20 is denoted as A)
8 | 0.38 | CCO[C@@H]1C[C@H]2C(=O)NC3(CC(C)(C)C3)C(=O)N(C)[C@@H](C3CCCC3)C(=O)N(C)[C@H](C(=O)N(C)CC)CC(=O)N(C)[C@@H](CC(C)C)C(=O)N[C@@H]([C@@H](C)CC)C(=O)N(C)CC(=O)N(C)[C@H]3C/C=C\CCN(C3=O)[C@@H](Cc3ccc(C(F)F)cc3)C(=O)N(C)CC(=O)N[C@@H](CCc3ccc(Cl)c(Cl)c3)C(=O)N2C1 [PP2827] | B (a compound having 3 or more and less than 10 is denoted as B) | NRAS/KRAS (ratio of KD value with respect to GDP-bound NRAS wild-type protein to KD value with respect to KRAS) [2]: A (a compound having 10 or more and less than 20 is denoted as A)
9 | 1.9 | CCC[C@H]1C(=O)N[C@@H]([C@@H](C)CC)C(=O)N(C)CC(=O)N(C)[C@H]2C/C=C\CCN(C2=O)[C@@H](Cc2ccc(C)cc2)C(=O)N(C)CC(=O)N[C@@H](CCc2ccc(Cl)c(OC)c2)C(=O)N2C[C@H](OCC)C[C@H]2C(=O)NC2(CC(C)(C)C2)C(=O)N(C)[C@@H](C(CC)CC)C(=O)N(C)[C@H](C(=O)N(C)C)CC(=O)N1C [PP2791] | A (a compound having 10 or more and less than 20 is denoted as A) | 
